Measured values taken from article PMC12597212, “Biaryl Phosphate‐Based Inhibitors of the Transcription Factor STAT4” (Chemmedchem, 2025).

Tests used:
STAT6 = target: T1, STAT6 (Homo sapiens, UniProt P42226); assay: Competitive fluorescence polarization (FP) assay, STAT6; format: binding; settings: for IC50: 106 nM STAT6, 10 nM tracer peptide; for Ki: Ki calculated from IC50, mean ± SD, n = 3
T1 sequence (P42226 1-847): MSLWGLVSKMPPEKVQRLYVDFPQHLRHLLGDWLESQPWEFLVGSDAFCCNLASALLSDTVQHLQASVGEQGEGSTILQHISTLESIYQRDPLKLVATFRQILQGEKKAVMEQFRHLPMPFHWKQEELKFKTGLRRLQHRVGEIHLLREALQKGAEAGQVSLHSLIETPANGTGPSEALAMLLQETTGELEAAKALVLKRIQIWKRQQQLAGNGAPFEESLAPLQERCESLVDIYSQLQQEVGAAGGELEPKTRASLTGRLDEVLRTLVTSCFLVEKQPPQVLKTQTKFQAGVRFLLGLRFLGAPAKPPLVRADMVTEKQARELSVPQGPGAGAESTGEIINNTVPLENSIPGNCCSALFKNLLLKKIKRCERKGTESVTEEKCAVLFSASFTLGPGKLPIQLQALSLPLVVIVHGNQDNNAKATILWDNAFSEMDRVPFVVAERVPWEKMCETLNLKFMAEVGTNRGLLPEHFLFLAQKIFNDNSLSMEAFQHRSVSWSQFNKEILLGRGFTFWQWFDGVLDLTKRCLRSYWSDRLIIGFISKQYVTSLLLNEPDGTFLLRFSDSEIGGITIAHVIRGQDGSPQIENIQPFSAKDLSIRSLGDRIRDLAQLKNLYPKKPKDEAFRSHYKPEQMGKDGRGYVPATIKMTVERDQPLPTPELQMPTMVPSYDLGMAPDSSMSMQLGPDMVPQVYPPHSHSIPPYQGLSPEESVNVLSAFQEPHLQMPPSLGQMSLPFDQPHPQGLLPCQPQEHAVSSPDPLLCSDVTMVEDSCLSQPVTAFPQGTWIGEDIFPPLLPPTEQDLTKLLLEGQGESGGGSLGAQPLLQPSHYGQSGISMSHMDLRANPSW
Procedure: (§1) Fluorescence polarization assays
(§2) STAT4; 5-carboxyfluorescein-GpYDKPHVL for STAT1; 5-carboxyfluorescein-GpYLPQTV- […]
(§3) fluorescent-labeled peptide was added. Samples were transferred to 384-well microtiter plates […]
(§4) Experiments were carried out in triplicate. Percent binding was calculated based on a logarithmic curve fit using OriginPro 8G software. Conversion of IC50 values to Ki-values was […]
(§5) Error bars represent standard deviations. […]
(§6) Experiments were carried out in triplicate. […]

STAT5b = target: T2, STAT5b (Homo sapiens, UniProt P51692); assay: Competitive fluorescence polarization (FP) assay, STAT5b; format: binding; settings: for IC50: 59-85 nM STAT5b, 10 nM tracer peptide; for Ki: Ki calculated from IC50, mean ± SD, n = 3; for inhibition at 100 µM: compound at 100 µM
T2 sequence (P51692 1-787): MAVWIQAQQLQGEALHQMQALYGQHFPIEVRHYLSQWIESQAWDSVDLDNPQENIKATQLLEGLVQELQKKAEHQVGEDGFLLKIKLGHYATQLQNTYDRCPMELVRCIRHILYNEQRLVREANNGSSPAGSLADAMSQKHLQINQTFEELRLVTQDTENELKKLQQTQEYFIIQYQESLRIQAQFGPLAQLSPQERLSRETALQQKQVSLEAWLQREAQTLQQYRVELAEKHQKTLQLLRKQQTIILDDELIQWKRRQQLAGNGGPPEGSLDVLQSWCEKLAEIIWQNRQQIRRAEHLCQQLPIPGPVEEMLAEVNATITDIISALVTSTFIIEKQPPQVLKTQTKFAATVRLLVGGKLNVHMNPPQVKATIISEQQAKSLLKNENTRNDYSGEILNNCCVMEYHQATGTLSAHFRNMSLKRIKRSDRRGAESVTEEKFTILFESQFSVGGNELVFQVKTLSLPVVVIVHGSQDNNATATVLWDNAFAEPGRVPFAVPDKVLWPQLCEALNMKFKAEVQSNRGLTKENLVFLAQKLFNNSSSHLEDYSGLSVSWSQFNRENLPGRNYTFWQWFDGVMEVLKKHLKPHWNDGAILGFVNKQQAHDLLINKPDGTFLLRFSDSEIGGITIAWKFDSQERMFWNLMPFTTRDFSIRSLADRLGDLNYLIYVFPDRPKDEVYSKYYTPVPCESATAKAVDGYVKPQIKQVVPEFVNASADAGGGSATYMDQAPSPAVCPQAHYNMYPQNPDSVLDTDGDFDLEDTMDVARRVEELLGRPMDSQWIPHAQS
Procedure: as §1, §2, §3, §4, §5, §6

STAT4 = target: T3, STAT4 (Homo sapiens, UniProt Q14765); assay: Isothermal titration calorimetry (ITC), binding to STAT4; settings: 10 µM STAT4, 100 µM ligand, 25 °C, 10 mM Tris pH 8.0, 50 mM NaCl, 1 % DMSO; n = 3
T3 construct: 6xHis; made in house
T3 sequence (Q14765 1-748): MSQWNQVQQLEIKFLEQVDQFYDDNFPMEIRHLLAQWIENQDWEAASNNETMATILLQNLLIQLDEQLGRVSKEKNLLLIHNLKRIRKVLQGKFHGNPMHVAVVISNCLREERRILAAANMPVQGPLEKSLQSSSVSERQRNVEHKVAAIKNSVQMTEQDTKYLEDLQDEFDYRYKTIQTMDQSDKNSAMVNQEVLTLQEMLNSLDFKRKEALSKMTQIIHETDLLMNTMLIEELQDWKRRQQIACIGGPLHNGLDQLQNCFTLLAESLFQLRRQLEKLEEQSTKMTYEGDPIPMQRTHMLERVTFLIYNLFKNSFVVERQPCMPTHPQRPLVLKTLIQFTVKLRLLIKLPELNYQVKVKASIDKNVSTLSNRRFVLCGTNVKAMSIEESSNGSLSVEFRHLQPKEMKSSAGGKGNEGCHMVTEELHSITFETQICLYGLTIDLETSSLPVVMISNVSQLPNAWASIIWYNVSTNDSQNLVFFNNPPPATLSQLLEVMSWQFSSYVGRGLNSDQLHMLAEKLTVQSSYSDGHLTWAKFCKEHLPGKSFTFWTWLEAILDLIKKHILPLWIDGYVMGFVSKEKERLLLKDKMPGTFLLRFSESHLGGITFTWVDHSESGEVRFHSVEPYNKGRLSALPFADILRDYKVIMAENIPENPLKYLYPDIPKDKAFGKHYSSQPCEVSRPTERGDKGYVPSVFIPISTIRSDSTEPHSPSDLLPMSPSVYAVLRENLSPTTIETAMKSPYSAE
Procedure: as §3, §4
Error bars represent standard deviations.
Isothermal Titration Calorimetry […]
dialysis tubing with a 50 kDa cut-off. ITC experiments were performed using a VP-ITC Micro […]
ITC buffer (final ligand concentration: 100 µM). 1 % (v/v) DMSO was added to the buffers […]
detection of dilution heat. Proteins were degassed before the experiments using a ThermoVac sample degassing station. […]
site binding model was used for data fitting. Figures were generated using GUSSI. Experiments were carried out in triplicate.
General synthetic methods
Method 1: Suzuki coupling […]
three times with ethyl acetate. The combined organic layers were washed with water, after which they were dried over Na2SO4 and filtered. The volatiles were removed under reduced

Row | Structure (SMILES) | IC50 (STAT6) [µM] | Ki (STAT6) [µM] | IC50 (STAT5b) [µM] | Ki (STAT5b) [µM] | inhibition at 100 µM (STAT5b) [%] | inhibition at 200 µM (STAT5b; compound at 200 µM) [%] | Kd (STAT4) [µM]
1 | O=P(O)(O)Oc1ccc(-c2ccsc2)cc1 [8a] | 15.8 | 7.8 ± 0.7 | 47 | 23 ± 1 |  |  | 
2 | O=P(O)(O)Oc1ccc(-c2cccs2)cc1 [8b] | 19 | 9.4 ± 0.3 | 16.8 | 8.2 ± 0.4 |  |  | 
3 | O=P(O)(O)Oc1ccc(-c2nccs2)cc1 [8c] | 112 | 55 ± 1 |  |  | 26 ± 2 | 45 ± 1 | 
4 | Cc1cc(-c2ccc(OP(=O)(O)O)c(F)c2)cs1 [8f] | 34 | 17 ± 2 | 36 | 18 ± 1 |  |  | 3.1 ± 1
5 | O=P(O)(O)Oc1ccc2c(c1)Cc1ccccc1-2 [compound 11] | 23 | 12 ± 1 | 101 | 49 ± 6 |  |  | 
6 | O=P(O)(O)Oc1ccc2c(c1)oc1ccccc12 [compound 12] | 53 | 26 ± 4 |  |  | 49 ± 1 |  | 
